Tests used:
[1] = test system: normal NK cells expanded with K562-aAPC; test: drug sensitivity score (DSS) (DSS units); higher = more sensitive; extreme values may be limits of the assay; conditions: 72 h; IL-2 2.5 ng/mL
Protocol: (§1)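 Drug sensitivity and resistance testing on K562-aAPC-expanded normal NK cells: 5 concentrations (10-fold steps over a 10,000-fold range), 72 h at 37 °C, viability by CellTiter-Glo normalised to DMSO and benzethonium chloride controls; DSS from the fitted curve.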

SNK-6 (IL-2 2.5 ng/mL) [2] = test: percent inhibition of viability; higher = more inhibition; conditions: 72 h
[3] = test system: normal primary NK cells, pool 1 (3 donors), resting (IL-2 0 ng/mL); test: as above; conditions: 72 h
IMC-1 (IL-2 20 ng/mL) [4] = test: as above; conditions: 72 h
NK-92 (IL-2 2.5 ng/mL) [5] = test: as above; conditions: 72 h
KHYG-1 (IL-2 2.5 ng/mL) [6] = test: as above; conditions: 72 h
[7] = test system: normal primary NK cells, pool 3 (3 donors) (IL-2 2.5 ng/mL); test: as above; conditions: 72 h
YT (IL-2 2.5 ng/mL) [8] = test: as above; conditions: 72 h
[9] = test system: normal primary NK cells, pool 1 (3 donors) (IL-2 2.5 ng/mL); test: as above; conditions: 72 h
[10] = test system: normal primary NK cells, pool 2 (3 donors) (IL-2 2.5 ng/mL); test: as above; conditions: 72 h
NKL (IL-2 2.5 ng/mL) [11] = test: as above; conditions: 72 h
NK-YS (IL-2 2.5 ng/mL) [12] = test: as above; conditions: 72 h
DERL-7 (IL-2 2.5 ng/mL) [13] = test: as above; conditions: 72 h
KAI3 (IL-2 2.5 ng/mL) [14] = test: as above; conditions: 72 h
SNK-6 (IL-2 2.5 ng/mL) [15] = test: drug sensitivity score (DSS) (DSS units); higher = more sensitive; extreme values may be limits of the assay; conditions: 72 h
[16] = test system: normal primary NK cells, pool 1 (3 donors), resting (IL-2 0 ng/mL); test: as above; conditions: 72 h
IMC-1 (IL-2 20 ng/mL) [17] = test: as above; conditions: 72 h
NK-92 (IL-2 2.5 ng/mL) [18] = test: as above; conditions: 72 h
KHYG-1 (IL-2 2.5 ng/mL) [19] = test: as above; conditions: 72 h
[20] = test system: normal primary NK cells, pool 3 (3 donors) (IL-2 2.5 ng/mL); test: as above; conditions: 72 h
YT (IL-2 2.5 ng/mL) [21] = test: as above; conditions: 72 h
[22] = test system: normal primary NK cells, pool 1 (3 donors) (IL-2 2.5 ng/mL); test: as above; conditions: 72 h
[23] = test system: normal primary NK cells, pool 2 (3 donors) (IL-2 2.5 ng/mL); test: as above; conditions: 72 h
NKL (IL-2 2.5 ng/mL) [24] = test: as above; conditions: 72 h
NK-YS (IL-2 2.5 ng/mL) [25] = test: as above; conditions: 72 h
DERL-7 (IL-2 2.5 ng/mL) [26] = test: as above; conditions: 72 h
KAI3 (IL-2 2.5 ng/mL) [27] = test: as above; conditions: 72 h
[28] = test system: normal NK cells expanded with K562-aAPC; test: percent inhibition of viability; higher = more inhibition; conditions: 72 h, IL-2 2.5 ng/mL
Protocol: as §1

O=C(c1cc(Cc2n[nH]c(=O)c3ccccc23)ccc1F)N1CCN(C(=O)C2CC2)CC1 [Olaparib] (max concentration tested 10000 nM)
Conditions	drug sensitivity score
DERL-7 (IL-2 2.5 ng/mL) [26]	1.54
IMC-1 (IL-2 20 ng/mL) [17]	4.75
KAI3 (IL-2 2.5 ng/mL) [27]	7.15
KHYG-1 (IL-2 2.5 ng/mL) [19]	5.78
NK-92 (IL-2 2.5 ng/mL) [18]	7.35
NK-YS (IL-2 2.5 ng/mL) [25]	8.28
NKL (IL-2 2.5 ng/mL) [24]	14.5
SNK-6 (IL-2 2.5 ng/mL) [15]	8.04
YT (IL-2 2.5 ng/mL) [21]	1.37
[1]	3.25
[16]	0.22
[20]	0.4
[22]	0
[23]	0.48

percent inhibition of viability [%]
Conditions	1 nM	10 nM	100 nM	1000 nM	10000 nM
DERL-7 (IL-2 2.5 ng/mL) [13]	-1.68	4.77	-8.94	1.1	31.5
IMC-1 (IL-2 20 ng/mL) [4]	2.29	1.77	7.69	13.7	53.5
KAI3 (IL-2 2.5 ng/mL) [14]	0.33	3.77	9.9	28.6	72.2
KHYG-1 (IL-2 2.5 ng/mL) [6]	-5.18	-5.25	0.38	10.5	72.6
NK-92 (IL-2 2.5 ng/mL) [5]	4.94	9.54	8.93	21.5	79.2
NK-YS (IL-2 2.5 ng/mL) [12]	-6.43	-6.57	3.49	20.7	90.7
NKL (IL-2 2.5 ng/mL) [11]	0.33	9.8	27.9	57.2	80.5
SNK-6 (IL-2 2.5 ng/mL) [2]	1.96	-1.75	-10.2	19.4	89.5
YT (IL-2 2.5 ng/mL) [8]	4.35	1.35	5.37	3.91	22.8
[3]	-10.9	1.92	-9.9	-1.32	15.6
[7]	-7.91	-1.82	-4.22	3.8	13.5
[9]	3.22	7.12	-3.15	3.31	8.24
[10]	-7.93	-9.67	-11	2.31	15.4
[28]	5.19	4.79	5.47	7.88	39.6

COc1ccccc1S(=O)(=O)Nc1ccc2c(c1)CN(C)C(=O)N2 [PFI-1] (max concentration tested 10000 nM)
Conditions	drug sensitivity score
DERL-7 (IL-2 2.5 ng/mL) [26]	9.94
IMC-1 (IL-2 20 ng/mL) [17]	2.96
KAI3 (IL-2 2.5 ng/mL) [27]	3.39
KHYG-1 (IL-2 2.5 ng/mL) [19]	8.09
NK-92 (IL-2 2.5 ng/mL) [18]	0.06
NK-YS (IL-2 2.5 ng/mL) [25]	7.15
NKL (IL-2 2.5 ng/mL) [24]	8.04
SNK-6 (IL-2 2.5 ng/mL) [15]	3.9
YT (IL-2 2.5 ng/mL) [21]	3.74
[1]	4.03
[16]	0.99
[20]	2.17
[22]	1.98
[23]	4.3

percent inhibition of viability [%]
Conditions	1 nM	10 nM	100 nM	1000 nM	10000 nM
DERL-7 (IL-2 2.5 ng/mL) [13]	-2.29	2.86	9.32	41.8	91.8
IMC-1 (IL-2 20 ng/mL) [4]	-2.65	-6.11	-1.36	1.44	52.3
KAI3 (IL-2 2.5 ng/mL) [14]	-2.2	1.8	-7.46	5.35	48
KHYG-1 (IL-2 2.5 ng/mL) [6]	-2.18	-2.43	-0.21	19.9	89.2
NK-92 (IL-2 2.5 ng/mL) [5]	-6.34	6.35	-0.51	-18.3	14.6
NK-YS (IL-2 2.5 ng/mL) [12]	-6.14	-3.35	2.77	24.8	70
NKL (IL-2 2.5 ng/mL) [11]	-16	-14.6	-8.15	32	70.4
SNK-6 (IL-2 2.5 ng/mL) [2]	-3.16	-6.59	7.82	7.89	48.9
YT (IL-2 2.5 ng/mL) [8]	1.99	0.44	-0.45	5.52	53.1
[3]	-7.18	7.82	-0.65	-5.17	29.6
[7]	-2.26	-5.87	0.68	4.06	32.9
[9]	1.67	-1.14	-0.56	0.29	39.4
[10]	-9.32	-3.5	-1.83	9.71	50.9
[28]	1.38	-2.34	0.83	10.4	45.7

Reference: the supplement of paper PMC5908809
